Experimental findings from article PMC11702208 (RSC Advances, 2025) are described below.

Values joined by “and” are separate entries in the source; they are usually repeats but may differ in a detail not shown here. Equal entries are not always repeated.

In assay [1] the test system is SR. Kind of assay: NCI cytotoxicity screen. In kind it is cell-based, human. To be noted: 10.0 μM one dose.
The subject of assay [2] is NCI-H23. Kind of assay: NCI cytotoxicity screen. The conditions noted are these: 10.0 μM one dose. In kind it is cell-based, human.
For assay [3], the system named is NCI-H522. Kind of assay: NCI cytotoxicity screen. To be noted: 10.0 μM one dose. It is filed as cell-based, human.
Assay [4] concerns HCT-116. Nature of the assay: NCI cytotoxicity screen. It is filed as cell-based, human. To be noted: 10.0 μM one dose.
Assay [5] relates to KM12. Nature of the assay: NCI cytotoxicity screen. In kind it is cell-based, human. The conditions noted are these: 10.0 μM one dose; KM-12.
The test system of assay [6] is SF-268. Nature of the assay: NCI cytotoxicity screen. It is filed as cell-based, human. To be noted: 10.0 μM one dose.
The test system of assay [7] is SF-539. Nature of the assay: NCI cytotoxicity screen. It is filed as cell-based, human. To be noted: 10.0 μM one dose.
For assay [8], the system named is SNB-19. Kind of assay: NCI cytotoxicity screen. In kind it is cell-based, human. To be noted: 10.0 μM one dose.
In assay [9] the test system is SNB-75. Kind of assay: NCI cytotoxicity screen. In kind it is cell-based, human. The conditions noted are these: 10.0 μM one dose.
The test system of assay [10] is U251. Nature of the assay: NCI cytotoxicity screen. To be noted: 10.0 μM one dose; U-251. It is filed as cell-based, human.
In assay [11] the test system is LOX IMVI. Kind of assay: NCI cytotoxicity screen. It is filed as cell-based, human. To be noted: 10.0 μM one dose.
For assay [12], the system named is MALME-3M. Kind of assay: NCI cytotoxicity screen. In kind it is cell-based, human. To be noted: 10.0 μM one dose; MALME-3M.
Assay [13] deals with M14. Nature of the assay: NCI cytotoxicity screen. In kind it is cell-based, human. To be noted: 10.0 μM one dose.
For assay [14], the system named is MDA-MB-435. Nature of the assay: NCI cytotoxicity screen. In kind it is cell-based, human. The conditions noted are these: 10.0 μM one dose.
Assay [15] deals with SK-MEL-5. Nature of the assay: NCI cytotoxicity screen. It is filed as cell-based, human. To be noted: 10.0 μM one dose.
Assay [16] concerns UACC-62. Kind of assay: NCI cytotoxicity screen. In kind it is cell-based, human. The conditions noted are these: 10.0 μM one dose.
The test system of assay [17] is OVCAR-5. Nature of the assay: NCI cytotoxicity screen. The conditions noted are these: 10.0 μM one dose; OVCAR-5. It is filed as cell-based, human.
Assay [18] concerns 786-0. Kind of assay: NCI cytotoxicity screen. In kind it is cell-based, human. The conditions noted are these: 10.0 μM one dose.
For assay [19], the system named is CAKI-1. Kind of assay: NCI cytotoxicity screen. The conditions noted are these: 10.0 μM one dose. It is filed as cell-based, human.
Assay [20] concerns RXF 393. Kind of assay: NCI cytotoxicity screen. It is filed as cell-based, human. The conditions noted are these: 10.0 μM one dose.
The test system of assay [21] is MDA-MB-231/ATCC. Nature of the assay: NCI cytotoxicity screen. In kind it is cell-based, human. The conditions noted are these: 10.0 μM one dose; MDA-MB-231/ATCC.
The test system of assay [22] is HS 578T. Kind of assay: NCI cytotoxicity screen. In kind it is cell-based, human. To be noted: 10.0 μM one dose; HS-578T.
The test system of assay [23] is BT-549. Nature of the assay: NCI cytotoxicity screen. It is filed as cell-based, human. To be noted: 10.0 μM one dose.
The test system of assay [24] is T-47D. Kind of assay: NCI cytotoxicity screen. It is filed as cell-based, human. To be noted: 10.0 μM one dose; T-47D.
The subject of assay [25] is MDA-MB-468. Nature of the assay: NCI cytotoxicity screen. It is filed as cell-based, human. To be noted: 10.0 μM one dose.
Assay [26] deals with 59 cancer cell lines. Kind of assay: NCI cytotoxicity screen, full panel. It is filed as cell-based, human. The conditions noted are these: 10.0 μM one dose; 59 cell lines.
Assay [27] concerns the target T1, COX-2 (Ovis aries, UniProt P79208).
T1 sequence (P79208 17-603): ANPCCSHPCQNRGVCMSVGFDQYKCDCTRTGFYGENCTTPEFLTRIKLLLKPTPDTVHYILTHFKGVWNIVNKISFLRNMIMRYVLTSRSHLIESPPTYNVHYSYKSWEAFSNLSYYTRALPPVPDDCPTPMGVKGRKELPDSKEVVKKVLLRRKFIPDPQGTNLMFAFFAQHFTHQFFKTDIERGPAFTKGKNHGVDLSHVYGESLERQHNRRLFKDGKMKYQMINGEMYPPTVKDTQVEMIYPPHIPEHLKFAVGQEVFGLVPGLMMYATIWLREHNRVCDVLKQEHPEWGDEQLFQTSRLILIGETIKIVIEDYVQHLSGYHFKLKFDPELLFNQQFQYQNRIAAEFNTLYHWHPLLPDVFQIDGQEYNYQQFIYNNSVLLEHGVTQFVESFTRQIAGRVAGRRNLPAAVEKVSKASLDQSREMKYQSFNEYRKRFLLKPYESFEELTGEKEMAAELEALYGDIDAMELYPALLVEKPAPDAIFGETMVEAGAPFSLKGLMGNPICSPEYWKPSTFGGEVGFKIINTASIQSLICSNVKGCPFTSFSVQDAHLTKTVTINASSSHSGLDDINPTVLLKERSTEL
Nature of the assay: Colorimetric COX. It is filed as biochemical, ovine.

For assay [28], the target named is EGFR (Homo sapiens, UniProt P00533). Nature of the assay: biochemical. The conditions noted are these: IC50 EGFR inhibition.
Sequence of EGFR (P00533 25-1210): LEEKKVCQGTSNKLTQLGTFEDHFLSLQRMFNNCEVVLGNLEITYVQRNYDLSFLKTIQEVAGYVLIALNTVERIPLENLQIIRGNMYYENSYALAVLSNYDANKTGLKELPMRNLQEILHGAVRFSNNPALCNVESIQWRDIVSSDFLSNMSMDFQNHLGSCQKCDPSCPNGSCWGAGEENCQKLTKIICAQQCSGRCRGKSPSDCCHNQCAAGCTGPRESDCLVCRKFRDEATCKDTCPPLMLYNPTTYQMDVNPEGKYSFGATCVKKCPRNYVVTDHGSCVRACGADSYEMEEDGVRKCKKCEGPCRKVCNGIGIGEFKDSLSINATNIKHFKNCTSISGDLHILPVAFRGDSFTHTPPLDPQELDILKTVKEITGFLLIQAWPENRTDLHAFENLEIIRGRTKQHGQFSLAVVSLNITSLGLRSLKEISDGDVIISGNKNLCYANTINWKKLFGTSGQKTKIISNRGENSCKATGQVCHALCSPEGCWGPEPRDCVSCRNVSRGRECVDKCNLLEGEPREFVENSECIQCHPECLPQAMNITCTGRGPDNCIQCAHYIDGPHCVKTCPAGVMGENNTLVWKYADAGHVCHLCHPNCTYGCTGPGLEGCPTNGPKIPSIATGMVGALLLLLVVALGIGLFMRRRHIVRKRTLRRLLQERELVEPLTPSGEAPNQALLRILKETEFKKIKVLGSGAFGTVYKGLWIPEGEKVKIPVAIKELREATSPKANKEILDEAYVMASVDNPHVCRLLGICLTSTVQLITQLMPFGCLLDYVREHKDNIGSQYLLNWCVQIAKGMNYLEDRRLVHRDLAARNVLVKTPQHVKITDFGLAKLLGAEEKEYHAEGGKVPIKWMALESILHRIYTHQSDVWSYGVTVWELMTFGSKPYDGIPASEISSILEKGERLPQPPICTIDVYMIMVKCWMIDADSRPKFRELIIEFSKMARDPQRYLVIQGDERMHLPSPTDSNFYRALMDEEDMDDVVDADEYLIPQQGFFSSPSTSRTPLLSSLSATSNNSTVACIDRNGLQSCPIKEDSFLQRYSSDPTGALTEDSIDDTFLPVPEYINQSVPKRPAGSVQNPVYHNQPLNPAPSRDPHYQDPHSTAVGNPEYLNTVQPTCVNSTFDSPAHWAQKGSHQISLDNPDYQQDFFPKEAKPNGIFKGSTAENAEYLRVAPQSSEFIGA
Assay [29] deals with HER2 (Homo sapiens, UniProt P04626). Nature of the assay: HER2 tyrosine kinase assay. In kind it is biochemical. To be noted: IC50 HER2 inhibition.
Sequence of HER2 (P04626 23-1255): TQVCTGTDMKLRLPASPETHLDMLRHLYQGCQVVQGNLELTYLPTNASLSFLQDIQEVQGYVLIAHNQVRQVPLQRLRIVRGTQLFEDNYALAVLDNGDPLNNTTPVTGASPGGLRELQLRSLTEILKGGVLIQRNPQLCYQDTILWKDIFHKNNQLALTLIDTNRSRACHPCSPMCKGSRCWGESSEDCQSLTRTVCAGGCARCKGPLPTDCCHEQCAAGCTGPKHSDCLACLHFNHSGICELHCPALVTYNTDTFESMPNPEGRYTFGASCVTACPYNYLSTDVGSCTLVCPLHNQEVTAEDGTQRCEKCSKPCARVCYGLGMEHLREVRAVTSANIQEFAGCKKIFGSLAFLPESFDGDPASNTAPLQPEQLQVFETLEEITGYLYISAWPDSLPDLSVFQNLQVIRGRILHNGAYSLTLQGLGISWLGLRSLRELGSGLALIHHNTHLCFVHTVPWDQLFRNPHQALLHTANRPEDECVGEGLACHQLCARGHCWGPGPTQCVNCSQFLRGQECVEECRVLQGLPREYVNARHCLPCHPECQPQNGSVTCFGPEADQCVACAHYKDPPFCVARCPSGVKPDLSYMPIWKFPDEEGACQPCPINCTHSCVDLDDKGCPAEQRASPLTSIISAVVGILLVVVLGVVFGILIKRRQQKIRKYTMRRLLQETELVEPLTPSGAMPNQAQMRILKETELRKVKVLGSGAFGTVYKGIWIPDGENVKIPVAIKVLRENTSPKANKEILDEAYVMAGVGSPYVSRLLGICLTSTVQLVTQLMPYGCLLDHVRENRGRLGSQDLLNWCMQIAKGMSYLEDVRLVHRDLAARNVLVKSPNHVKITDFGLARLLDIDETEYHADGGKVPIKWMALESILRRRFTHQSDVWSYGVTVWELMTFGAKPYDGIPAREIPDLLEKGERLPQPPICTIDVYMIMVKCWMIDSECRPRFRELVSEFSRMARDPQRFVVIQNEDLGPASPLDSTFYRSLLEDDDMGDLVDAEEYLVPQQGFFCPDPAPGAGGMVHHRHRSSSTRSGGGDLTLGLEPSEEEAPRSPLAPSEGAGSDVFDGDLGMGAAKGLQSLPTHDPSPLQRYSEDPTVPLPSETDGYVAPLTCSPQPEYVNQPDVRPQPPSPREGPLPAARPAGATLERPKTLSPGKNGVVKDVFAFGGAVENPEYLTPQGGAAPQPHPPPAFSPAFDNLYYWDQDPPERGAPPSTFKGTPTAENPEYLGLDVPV
Assay [30] has as its target CDK9 (Homo sapiens, UniProt P50750). Kind of assay: biochemical. The conditions noted are these: IC50 CDK9 inhibition.
Assay [31] has as its system UO-31. Kind of assay: NCI cytotoxicity screen. In kind it is cell-based, human. The conditions noted are these: 10.0 μM one dose.
The subject of assay [32] is MCF7. Kind of assay: NCI cytotoxicity screen. In kind it is cell-based, human. The conditions noted are these: 10.0 μM one dose; MCF-7.
In assay [33] the test system is HOP-92. Kind of assay: NCI cytotoxicity screen. In kind it is cell-based, human. To be noted: 10.0 μM one dose.
The subject of assay [34] is EKVX. Kind of assay: NCI cytotoxicity screen. In kind it is cell-based, human. The conditions noted are these: 10.0 μM one dose.
Assay [35] deals with NCI-H322M. Nature of the assay: NCI cytotoxicity screen. In kind it is cell-based, human. The conditions noted are these: 10.0 μM one dose.
The test system of assay [36] is RPMI-8226. Kind of assay: NCI cytotoxicity screen. In kind it is cell-based, human. The conditions noted are these: 10.0 μM one dose.
The test system of assay [37] is NCI-H226. Kind of assay: NCI cytotoxicity screen. It is filed as cell-based, human. To be noted: 10.0 μM one dose.
Assay [38] concerns SN12C. Kind of assay: NCI cytotoxicity screen. It is filed as cell-based, human. To be noted: 10.0 μM one dose; SN-12C.

Sequence of CDK9 (P50750 whole entry): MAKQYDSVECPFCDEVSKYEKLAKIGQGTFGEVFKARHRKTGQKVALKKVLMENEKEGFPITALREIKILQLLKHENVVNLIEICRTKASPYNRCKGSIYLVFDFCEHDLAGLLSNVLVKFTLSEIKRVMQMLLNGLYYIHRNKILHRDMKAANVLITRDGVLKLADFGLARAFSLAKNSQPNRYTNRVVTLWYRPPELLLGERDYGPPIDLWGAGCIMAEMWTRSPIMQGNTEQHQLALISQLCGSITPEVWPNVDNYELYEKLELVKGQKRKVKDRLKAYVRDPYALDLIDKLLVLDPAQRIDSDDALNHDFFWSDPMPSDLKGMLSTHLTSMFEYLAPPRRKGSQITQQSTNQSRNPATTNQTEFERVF
Sequence of CDK9 (O60563 whole entry partner): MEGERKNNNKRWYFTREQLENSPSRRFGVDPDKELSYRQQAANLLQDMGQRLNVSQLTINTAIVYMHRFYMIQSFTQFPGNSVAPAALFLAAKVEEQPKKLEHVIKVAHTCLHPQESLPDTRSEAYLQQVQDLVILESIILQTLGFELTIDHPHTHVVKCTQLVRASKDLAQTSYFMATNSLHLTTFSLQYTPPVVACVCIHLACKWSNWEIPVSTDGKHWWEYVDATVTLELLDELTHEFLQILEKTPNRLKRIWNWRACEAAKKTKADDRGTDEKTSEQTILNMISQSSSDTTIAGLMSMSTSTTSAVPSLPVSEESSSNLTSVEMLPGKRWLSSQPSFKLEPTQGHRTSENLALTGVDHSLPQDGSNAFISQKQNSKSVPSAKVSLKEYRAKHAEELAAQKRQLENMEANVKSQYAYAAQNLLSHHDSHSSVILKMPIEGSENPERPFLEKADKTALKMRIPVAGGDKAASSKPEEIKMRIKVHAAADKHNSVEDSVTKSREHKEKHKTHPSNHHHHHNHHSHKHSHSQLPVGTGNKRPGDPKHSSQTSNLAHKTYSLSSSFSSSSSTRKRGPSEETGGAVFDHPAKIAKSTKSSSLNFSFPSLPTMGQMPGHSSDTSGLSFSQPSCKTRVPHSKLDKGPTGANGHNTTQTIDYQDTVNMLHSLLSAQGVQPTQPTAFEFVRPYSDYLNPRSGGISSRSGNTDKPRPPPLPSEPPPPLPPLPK

On to `COc1cc(OC)cc(C(C)=NNC(=O)CSc2nc3ccccc3c(=O)n2Cc2ccc(S(N)(=O)=O)cc2)c1` [Compound 12, 4-((2-((2-(2-(1-(3,5-Dimethoxyphenyl)ethylidene)hydrazineyl)-2-oxoethyl)thio)-4-oxoquinazolin-3(4H)-yl)methyl)benzenesulfonamide], for which the GI % was 28% in assay [1]; 17% in assay [2]; 62% in [3]; 17% in assay [4]; 30% in assay [5]; 64% in assay [6]. The GI % in assay [7] was found to be 64%; in [8], 49%; in [9], 39%; in assay [10], 26%; in assay [11], 20%; in assay [12], 30%. Besides, the GI % worked out at 11% in assay [13]; 30% in assay [14]; 32% in [15]; 17% in assay [16]; 14% in assay [17]; 15% in [18]. Moreover, the GI % was found to be 16% in assay [19]; 30% in [20]; 28% in [21]; 11% in assay [22]; 57% in [23]; 62% in assay [24]. The GI % in assay [25] is on record as 27%. Besides, the “MG% (mean growth percent)” value in [26] was determined as 88.4%. Further, the IC50 (in general, the concentration at which inhibition is half-maximal) is 21300 ± 440 nM in assay [27], 492 ± 12.1 nM in assay [28], 111 nM in [29] and 320 ± 7.85 nM in [30].

As for `COc1cc(C(C)=NNC(=O)CSc2nc3ccccc3c(=O)n2Cc2ccc(S(N)(=O)=O)cc2)cc(OC)c1OC` [Compound 13, 4-((4-Oxo-2-((2-oxo-2-(2-(1-(3,4,5-trimethoxyphenyl)ethylidene)hydrazineyl)ethyl)thio)quinazolin-3(4H)-yl)methyl)benzenesulfonamide], the GI % is recorded as 12% in assay [1]; 13% in assay [9]; 15% in assay [19]; 24% in assay [31]; 11% in assay [32]; 11% in assay [21]. In addition, the figures for the GI % in assay [24] and in assay [25] were 15% and 16%, respectively. The “MG% (mean growth percent)” value in [26] is 97.44%.

On to `COc1cccc(C(C)=NNC(=O)CSc2nc3ccccc3c(=O)n2Cc2ccc(S(N)(=O)=O)cc2)c1` [Compound 11, 4-((2-((2-(2-(1-(3-Methoxyphenyl)ethylidene)hydrazineyl)-2-oxoethyl)thio)-4-oxoquinazolin-3(4H)-yl)methyl)benzenesulfonamide], for which the GI % is reported as 52% in assay [3]; 20% in [4]; 25% in [6]; 28% in assay [7]; 15% in assay [8]; 22% in assay [9]. For the same compound, the GI % in assay [10] is recorded as 20%; in [15], 10%; in assay [17], 12%; in assay [19], 21%; in [20] it was 16%; in assay [31] it was 21%. In addition, the GI % in [32] is 10%; in [21], 25%; in assay [22], 19%; in assay [24] it was 11%; in assay [25], 19%. In addition, the “MG% (mean growth percent)” value in assay [26] was 94.5% and 94.54%.

For the compound `NS(=O)(=O)c1ccc(Cn2c(=S)[nH]c3ccccc3c2=O)cc1` [Compound 1, 4-((4-Oxo-2-thioxo-1,4-dihydroquinazolin-3(2H)-yl)methyl)benzenesulfonamide], the GI % in assay [33] turned out to be 14%; in assay [9] it was 23%; in [19], 11%; in assay [31] it was 19%.

Regarding `NS(=O)(=O)c1ccc(Cn2c(SCC(=O)NN=Cc3ccccc3)nc3ccccc3c2=O)cc1` [Compound 4, 4-((2-((2-(2-Benzylidenehydrazineyl)-2-oxoethyl)thio)-4-oxoquinazolin-3(4H)-yl)methyl)benzenesulfonamide], the GI % is 14% in assay [34]; 18% in assay [3]; 13% in [9]; 11% in [16]; 16% in assay [19]; 21% in assay [31]. Moreover, the figures for the GI % in [32], in assay [21] and in assay [22] were 14%, 12% and 11%, respectively.

Take `CCOC(=O)CSc1nc2ccccc2c(=O)n1Cc1ccc(S(N)(=O)=O)cc1` [Compound 2, Ethyl 2-((4-oxo-3-(4-sulfamoylbenzyl)-3,4-dihydroquinazolin-2-yl)thio)acetate]: the GI % came out at 15% in [9] and 16% in assay [31].

Regarding “4-((4-Oxo-2-((2-oxo-2-(2-(1-(p-tolyl)ethylidene)hydrazineyl)ethyl)thio)quinazolin-3(4H)-yl)methyl)benzenesulfonamide [Compound 10]”, the GI % in [34] came to 10%; in assay [35] it was 14%; in assay [6], 14%; in assay [10], 15%; in assay [19], 16%; in [31], 20%.

Regarding `COc1cccc(C=NNC(=O)CSc2nc3ccccc3c(=O)n2Cc2ccc(S(N)(=O)=O)cc2)c1` [Compound 7, 4-((2-((2-(2-(3-Methoxybenzylidene)hydrazineyl)-2-oxoethyl)thio)-4-oxoquinazolin-3(4H)-yl)methyl)benzenesulfonamide], the “MG% (mean growth percent)” value in assay [26] was 89.4% and 89.35%. In addition, the half-maximal inhibitory concentration (IC50) worked out at 50500 ± 1060 nM in [27], 594 ± 14.5 nM in assay [28], 387 nM in assay [29] and 155 ± 3.81 nM in assay [30].

Turning to `COc1cc(C=NNC(=O)CSc2nc3ccccc3c(=O)n2Cc2ccc(S(N)(=O)=O)cc2)cc(OC)c1OC` [Compound 8, 4-((4-Oxo-2-((2-oxo-2-(2-(3,4,5-trimethoxybenzylidene)hydrazineyl)ethyl)thio)quinazolin-3(4H)-yl)methyl)benzenesulfonamide], the GI % in [36] is recorded as 13%; in assay [34], 15%; in assay [37], 11%; in [35], 15%; in [3], 48%; in [6], 15%. Besides, the GI % is 12% in assay [7]; 14% in [19]; 10% in assay [20]; 10% in assay [38]; 25% in assay [31]; 11% in assay [32]. The figures for the GI % in assay [21], in assay [22] and in assay [25] were 15%, 15% and 19%, respectively. Moreover, in [26], the “MG% (mean growth percent)” value is 96.8% and 96.77%.
